What was measured:
[1] = thermal reversion halflife of spontaneous cis->trans isomerisation; assay type: physicochemical; details: PBS pH = 7.4, 20% MeCN
Excerpt: Finally, trends in τ were ascertained by establishing the PSS at λstrong, then turning off the light source at time t0, and measuring A(λstrong, t) over time. Data were acquired for half an hour, or else the first three halflives (whichever was the shorter period), then fitted to the equation:
A(λstrong,t)=A(λstrong,dark)−[A(λstrong,dark)−A(λstrong,t0)]×e^−kt
This fit was used to return an in vitro halflife τ* for the cis->trans spontaneous thermal reversion isomerisation process, defined as τ=ln 2/k. It should be noted however, that azoaryl compounds' thermal reversion rates are known to depend strongly upon their microenvironment, such as pH and solvent/solvation effects^[7,38]. This was shown for compound (I.1), where a change of only 1.4 pH units gave a 25% change in τ*; note that different compounds are expected to respond very differently to changes in pH so no unifying trends are expected. Therefore the τ* acquired in vitro were considered appropriate only for qualitative intercomparison between samples (trend of τ* vs structure), rather than quantitative prediction of the τ values which might be experienced in cellulo or in vivo. Indeed, these in vitro τ* values appeared at least three times longer than what would have been expected based on in cellulo experiments where the pause time between activating pulses was varied.
Thermal reversion times were measured as described above. Those for selected compounds are presented below (Table 2).

HeLa cells = experiment: cytotoxicity by crystal violet staining; assay type: cell-based; details: 40 h
Protocol: Seven of the compounds according to the invention were selected for biological tests. Their cytotoxicity was assessed using crystal violet staining as adapted from standard procedure^[31]. Briefly, HeLa cells were seeded on 96-well plates, treated with the given concentrations of the selected compound, and exposed or not to the pulse protocol of illumination with light at 390 nm (pulses of 75 ms every 15 s). After 40 h cells were stained with crystal violet solution (0.5% crystal violet in 20% methanol) for 10 min. Unbound crystal violet was removed by rinsing with distilled water and cells were air-dried. Crystal violet was subsequently eluted from cells with 0.1 M sodium citrate in 50% ethanol. The absorbance of crystal violet is proportional to the cell number and was determined at 590 nm with a FLUOstar Omega microplate reader (BMG Labtech).
Each compound was tested at 6 doses: 100 nM, 500 nM, 1 μM, 2 μM, 5 μM and 10 μM. In order to ensure their solubility in the cell culture media, DMSO was used as a co-solvent, and to provide comparability between all samples the volume of DMSO was adjusted to obtain its final concentration as 1% in the cell culture media for all the compounds at all concentrations tested.
Results presented in Table 4 below are expressed as a fold growth relative to the control growth of the cells treated only with a co-solvent (1% DMSO), and are represented as a mean value from triplicates coming from a representative experiment.

[2] = UV-Vis absorption spectra of trans and cis isomers (λstrong, εE, λiso); assay type: physicochemical; details: PBS pH = 7.4, 20% MeCN
Protocol: A(λmeas, λirrad) is used to indicate the measured UV-Vis absorption spectrum in the range 340 nm<λmeas<650 nm, as a function of the irradiating wavelength λirrad once PSS(λirrad) has been established. UV-Vis measurement of A(λmeas, λirrad) was performed. It was considered that the PSS had been established when the absorbance profile ceased to alter under continued irradiation. An isosbestic point (wavelength λiso) was found for each compound by examining where the absorption A(λmeas) was invariant with respect to changing λirrad. A(λmeas, dark) was also acquired with samples that had been kept in the dark for at least several hours, and it was assumed that no significant spectral contribution from the cis isomer was present in these spectra. […]
HPLC (high-performance liquid chromatography) was then used as described in Part A to measure ε*E(λ) and ε*Z(λ) (the separated absorption profiles of trans and cis isomers respectively, in arbitrary units which are not intercomparable in an absolute sense). It was approximated that these spectra would be identical in shape if measured under the UV-Vis conditions, so once ε*E(λ) and ε*Z(λ) were scaled appropriately relative to each other, these scaled spectra could be used to deconvolute A(λmeas, λirrad). This approximation was considered useful especially in the regions of greatest spectral interest, ie. regions of relatively strong absorption (since only rather well-absorbed wavelengths will allow significant photoisomerisation under finite photon flux). To place the arbitrary-unit absorption spectra on an absolute scale, the maximal absorption wavelength λstrong of the trans-isomer was first selected by examining A(λmeas, dark): typically, λstrong≈380 nm. with Expressing A(λstrong, dark) in units M^−1cm^−1, ε*E(λstrong) was then scaled so that εE(λstrong)=A(λstrong, dark), giving:
εE(λ)=ε*E(λ)×[A(λstrong,dark)/ε*E(λstrong)]
and the isosbestic point was used to scale the cis-isomer spectrum as per:
εZ(λ)=ε*Z(λ)×[εE(λiso)/ε*Z(λiso)]
However, using A(λstrong, dark) was preferred, since A(λiso) was typically so much smaller that the standard deviation in the scaled absorptivities which it generated was far greater.
Absorption spectra in cuvette (“UV-Vis”) were acquired on a Varian CaryScan 50 (1 cm, 100 μL or 1 mL volume) with Peltier cell temperature control unit maintained at 37° C., in PBS at pH˜7.4 containing a low percentage of cosolvent if needed (typically 2% MeCN or 5% DMSO). A ThorLabs Polychrome V monochromator with a fibre optic cable output directed into the cuvette was used to perform photoisomerisation studies by UV-Vis spectrophotometry although single LEDs of approximately 10-20 mW output, 15-20° cone angle, and 10-15 nm bandwidth FWHM, obtained commercially from Roithner Lasertechnik GmbH, were equally successful in providing repeatable monochromatic photoisomerisation. Separated spectra of trans and […] forms were acquired from the inline Diode Array Detector on the AGILENT 1260 SL coupled LC-MS system after HPLC separation. Fluorescence spectrophotometry (excitation and emission spectra) were acquired on a Varian CaryEclipse fluorescence spectrophotometer.
By the above procedure, the trans- and cis-isomers of each species were separated by HPLC as described in Part A, and ε*E(λ) and ε*Z(λ) were measured on the inline ultraviolet/visible Diode Array Detector; these were then scaled as outlined above. The parameters λstrong, εE(λstrong) and λiso are tabulated for selected compounds below (Table 1).

[3] = 100 nM, 390 nm (75 ms every 15 s)
[4] = 500 nM, 390 nm (75 ms every 15 s)
[5] = 1 μM, 390 nm (75 ms every 15 s)
[6] = 2 μM, 390 nm (75 ms every 15 s)
[7] = 5 μM, 390 nm (75 ms every 15 s)
[8] = 10 μM, 390 nm (75 ms every 15 s)

COc1ccc(N=Nc2cc(OC)c(OC)c(OC)c2)cc1 [I.6, 1-(4-methoxyphenyl)-2-(3,4,5-trimethoxyphenyl)diazene, reference compound]
τ, reversion time [1]: 83 min | mean fold growth (HeLa cells; [3]): 0.99 fold | mean fold growth (HeLa cells; 100 nM, Dark): 1.00 fold | mean fold growth (HeLa cells; [4]): 1.09 fold | mean fold growth (HeLa cells; 500 nM, Dark): 1.07 fold | mean fold growth (HeLa cells; [5]): 0.79 fold | mean fold growth (HeLa cells; 1 μM, Dark): 0.96 fold | mean fold growth (HeLa cells; [6]): 0.47 fold | mean fold growth (HeLa cells; 2 μM, Dark): 0.96 fold | mean fold growth (HeLa cells; [7]): 0.68 fold | mean fold growth (HeLa cells; 5 μM, Dark): 0.93 fold | mean fold growth (HeLa cells; [8]): 0.37 fold | mean fold growth (HeLa cells; 10 μM, Dark): 0.88 fold | εE(λstrong) [2]: 16300 M⁻¹ cm⁻¹ | λiso [2]: 445 nm | λstrong [2]: 365 nm

COc1ccc(N=Nc2cc(OC)c(OC)c(OC)c2)cc1F [I.3, 1-(3-fluoro-4-methoxyphenyl)-2-(3,4,5-trimethoxyphenyl)diazene]
τ, reversion time [1]: 61 min | mean fold growth (HeLa cells; [3]): 0.93 fold | mean fold growth (HeLa cells; 100 nM, Dark): 1.03 fold | mean fold growth (HeLa cells; [4]): 0.88 fold | mean fold growth (HeLa cells; 500 nM, Dark): 1.00 fold | mean fold growth (HeLa cells; [5]): 0.82 fold | mean fold growth (HeLa cells; 1 μM, Dark): 0.95 fold | mean fold growth (HeLa cells; [6]): 0.62 fold | mean fold growth (HeLa cells; 2 μM, Dark): 0.90 fold | mean fold growth (HeLa cells; [7]): 0.39 fold | mean fold growth (HeLa cells; 5 μM, Dark): 0.96 fold | mean fold growth (HeLa cells; [8]): 0.47 fold | mean fold growth (HeLa cells; 10 μM, Dark): 0.99 fold | εE(λstrong) [2]: 13300 M⁻¹ cm⁻¹ | λiso [2]: 445 nm | λstrong [2]: 365 nm

COc1ccc(N=Nc2cc(OC)c(OC)c(OC)c2)cc1N [I.2, 2-methoxy-5-((3,4,5-trimethoxyphenyl)diazenyl)aniline]
τ, reversion time [1]: 0.75 min | mean fold growth (HeLa cells; [3]): 1.10 fold | mean fold growth (HeLa cells; 100 nM, Dark): 0.97 fold | mean fold growth (HeLa cells; [4]): 0.83 fold | mean fold growth (HeLa cells; 500 nM, Dark): 0.90 fold | mean fold growth (HeLa cells; [5]): 0.50 fold | mean fold growth (HeLa cells; 1 μM, Dark): 0.89 fold | mean fold growth (HeLa cells; [6]): 0.47 fold | mean fold growth (HeLa cells; 2 μM, Dark): 0.81 fold | mean fold growth (HeLa cells; [7]): 0.32 fold | mean fold growth (HeLa cells; 5 μM, Dark): 0.86 fold | mean fold growth (HeLa cells; [8]): 0.34 fold | mean fold growth (HeLa cells; 10 μM, Dark): 0.70 fold | εE(λstrong) [2]: 11400 M⁻¹ cm⁻¹ | λiso [2]: 470 nm | λstrong [2]: 365 nm
